Experimental data taken from patent US20050032822A1, “Dithiocarbamate derivatives and their use as antibacterial agents” (priority 2001, published 2005).
Converted amounts (≈) assume the structure as drawn.

test system: M. tuberculosis H37Rv and two drug-resistant clinical isolates; assay: MIC and MBC against M. tuberculosis in liquid Shkolnikova medium / Lowenstein-Jensen medium; format: cell-based, Mycobacterium tuberculosis; details: mean values of the three strains (H37Rv and two drug-resistant clinical isolates); 14 days at 37° C.

| Compound | MIC (minimal inhibitory concentration) against Mycobacterium tuberculosis [µg/mL] |
| --- | --- |
| CCOc1nc(C)nc(SC(=S)N2CCCC2)c1[N+](=O)[O-] [Subst. Nr. 10, 4-ethoxy-2-methyl-6-tetramethylenedithiocarbamoyl-5-nitropyrimidine] | 5.21 (≈ 15.9 µM) |
| CNc1ncnc(SC(=S)N(C)C)c1[N+](=O)[O-] [Subst. Nr. 7, 4-methylamino-6-dimethyldithiocarbamoyl-5-nitropyrimidine] | 7.78 (≈ 28.5 µM) |
| CNc1ncnc(SC(=S)N2CCCC2)c1[N+](=O)[O-] [Subst. Nr. 12, 4-methylamino-6-tetramethylenedithiocarbamoyl-5-nitropyrimidine] | 3.64 (≈ 12.2 µM) |
| CCN(CC)C(=S)Sc1c(C#N)cc([N+](=O)[O-])cc1[N+](=O)[O-] [Subst. Nr. 3, 3,5-dinitro-2-diethyldithiocarbamoylbenzonitril] | 5.37 (≈ 15.8 µM) |
| CN(C)C(=S)Sc1ncnc(N(C)C)c1[N+](=O)[O-] [Subst. Nr. 8, 4-dimethylamino-6-dimethyldithiocarbamoyl-5-nitropyrimidine] | 7.81 (≈ 27.2 µM) |
| CCOc1nc(C)nc(SC(=S)N(CC)CC)c1[N+](=O)[O-] [Subst. Nr. 6, 4-ethoxy-2-methyl-6-diethyldithiocarbamoyl-5-nitropyrimidine] | 20.8 (≈ 62.9 µM) |
| 4-isopropylamino-6-diethyldithiocarbamoyl-5-nitropyrimidine [Subst. Nr. 1] | 31.3 |
| CN(C)c1ncnc(SC(=S)N2CCCC2)c1[N+](=O)[O-] [Subst. Nr. 13, 4-dimethylamino-6-tetramethylenedithiocarbamoyl-5-nitropyrimidine] | 3.12 (≈ 9.96 µM) |
| CCN(CC)C(=S)Sc1ncnc(NC2CC2)c1[N+](=O)[O-] [Subst. Nr. 2, 4-cyclopropylamino-6-diethyldithiocarbamoyl-5-nitropyrimidine] | 20.8 (≈ 63.5 µM) |
| CCN(CC)C(=S)Sc1ncnc(NC)c1[N+](=O)[O-] [Subst. Nr. 4, 4-methylamino-6-diethyldithiocarbamoyl-5-nitropyrimidine] | 6.25 (≈ 20.7 µM) |
| CCCOc1ncnc(SC(=S)N(C)C)c1[N+](=O)[O-] [Subst. Nr. 11, 4-propoxy-6-dimethyldithiocarbamoyl-5-nitropyrimidine] | 9.37 (≈ 31 µM) |
| CN(C)C(=S)Sc1c(C#N)cc([N+](=O)[O-])cc1[N+](=O)[O-] [Subst. Nr. 9, 3,5-dinitro-2-dimethyldithiocarbamoylbenzonitrile] | 4.78 (≈ 15.3 µM) |
| CCN(CC)C(=S)Sc1ncnc(N(C)O)c1[N+](=O)[O-] [Subst. Nr. 5, 4-methylhydroxyamino-6-diethyldithiocarbamoyl-5-nitropyrimidine] | 9.38 (≈ 29.6 µM) |

same assay, conditions: mean values of the three strains; read after 21-28 days on solid drug free Lowenstein-Jensen medium

| Compound | MBC (minimal bactericidal concentration) against Mycobacterium tuberculosis [µg/mL] |
| --- | --- |
| CCOc1nc(C)nc(SC(=S)N2CCCC2)c1[N+](=O)[O-] [Subst. Nr. 10, 4-ethoxy-2-methyl-6-tetramethylenedithiocarbamoyl-5-nitropyrimidine] | 8.33 (≈ 25.4 µM) |
| CNc1ncnc(SC(=S)N(C)C)c1[N+](=O)[O-] [Subst. Nr. 7, 4-methylamino-6-dimethyldithiocarbamoyl-5-nitropyrimidine] | 10.42 (≈ 38.1 µM) |
| CNc1ncnc(SC(=S)N2CCCC2)c1[N+](=O)[O-] [Subst. Nr. 12, 4-methylamino-6-tetramethylenedithiocarbamoyl-5-nitropyrimidine] | 8.33 (≈ 27.8 µM) |
| CCN(CC)C(=S)Sc1c(C#N)cc([N+](=O)[O-])cc1[N+](=O)[O-] [Subst. Nr. 3, 3,5-dinitro-2-diethyldithiocarbamoylbenzonitril] | 7.29 (≈ 21.4 µM) |
| CN(C)C(=S)Sc1ncnc(N(C)C)c1[N+](=O)[O-] [Subst. Nr. 8, 4-dimethylamino-6-dimethyldithiocarbamoyl-5-nitropyrimidine] | 12.5 (≈ 43.5 µM) |
| CCOc1nc(C)nc(SC(=S)N(CC)CC)c1[N+](=O)[O-] [Subst. Nr. 6, 4-ethoxy-2-methyl-6-diethyldithiocarbamoyl-5-nitropyrimidine] | 41.7 (≈ 126 µM) |
| 4-isopropylamino-6-diethyldithiocarbamoyl-5-nitropyrimidine [Subst. Nr. 1] | 100.0 |
| CN(C)c1ncnc(SC(=S)N2CCCC2)c1[N+](=O)[O-] [Subst. Nr. 13, 4-dimethylamino-6-tetramethylenedithiocarbamoyl-5-nitropyrimidine] | 6.25 (≈ 19.9 µM) |
| CCN(CC)C(=S)Sc1ncnc(NC2CC2)c1[N+](=O)[O-] [Subst. Nr. 2, 4-cyclopropylamino-6-diethyldithiocarbamoyl-5-nitropyrimidine] | 29.1 (≈ 88.9 µM) |
| CCN(CC)C(=S)Sc1ncnc(NC)c1[N+](=O)[O-] [Subst. Nr. 4, 4-methylamino-6-diethyldithiocarbamoyl-5-nitropyrimidine] | 12.5 (≈ 41.5 µM) |
| CCCOc1ncnc(SC(=S)N(C)C)c1[N+](=O)[O-] [Subst. Nr. 11, 4-propoxy-6-dimethyldithiocarbamoyl-5-nitropyrimidine] | 12.5 (≈ 41.3 µM) |
| CN(C)C(=S)Sc1c(C#N)cc([N+](=O)[O-])cc1[N+](=O)[O-] [Subst. Nr. 9, 3,5-dinitro-2-dimethyldithiocarbamoylbenzonitrile] | 6.25 (≈ 20 µM) |
| CCN(CC)C(=S)Sc1ncnc(N(C)O)c1[N+](=O)[O-] [Subst. Nr. 5, 4-methylhydroxyamino-6-diethyldithiocarbamoyl-5-nitropyrimidine] | 12.5 (≈ 39.4 µM) |
